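48-hour exposure; five concentrations; linearly interpolated endpoints. GI50 = concentration required for 50% inhibition of growth.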 The source made the active and inactive calls. Cut-off read from the data, not from the text of the source: active = GI50 up to about 1.1 µM and inactive = higher.
Tests used:
Assay in all cases: growth of human tumour cells (NCI), 48 h
A498 = tested on: A498
CCRF-CEM = tested on: CCRF-CEM
DMS-273 = tested on: DMS-273
KM12 = tested on: KM12
NCI-H522 = tested on: NCI-H522
OVCAR-4 = tested on: OVCAR-4
RXF 393 = tested on: RXF 393
SF-539 = tested on: SF-539
SK-MEL-2 = tested on: SK-MEL-2
SK-MEL-5 = tested on: SK-MEL-5
SN12C = tested on: SN12C
SNB-78 = tested on: SNB-78
XF498 = tested on: XF498
NCI-H226 = tested on: NCI-H226
BT-549 = tested on: BT-549
DU-145 = tested on: DU-145
MDA-MB-435 = tested on: MDA-MB-435
MDA-N = tested on: MDA-N
PC-3 = tested on: PC-3
TK-10 = tested on: TK-10

SMILES | GI50 (A498) | GI50 (CCRF-CEM) | GI50 (DMS-273) | GI50 (KM12) | GI50 (NCI-H522) | GI50 (OVCAR-4) | GI50 (RXF 393) | GI50 (SF-539) | GI50 (SK-MEL-2) | GI50 (SK-MEL-5) | GI50 (SN12C) | GI50 (SNB-78) | GI50 (XF498) | GI50 (NCI-H226) | GI50 (BT-549) | GI50 (DU-145) | GI50 (MDA-MB-435) | GI50 (MDA-N) | GI50 (PC-3) | GI50 (TK-10)
O=NN(CCF)C(=O)NC1CCSCC1 | > 100 µM (inactive) | > 100 µM (inactive) | > 100 µM (inactive) | > 100 µM (inactive) | > 100 µM (inactive) | > 100 µM (inactive) | > 100 µM (inactive) | > 100 µM (inactive) | > 100 µM (inactive) | > 100 µM (inactive) | > 100 µM (inactive) | > 100 µM (inactive) | < 0.01 µM (active) | – | – | – | – | – | – | –
COc1nc(O)c(N)c(NC2OC(CO)C(O)C(O)C2O)n1 (centres undefined) | > 100 µM (inactive) | > 57.8 µM (inactive) | > 100 µM (inactive) | > 100 µM (inactive) | > 100 µM (inactive) | > 100 µM (inactive) | > 100 µM (inactive) | > 100 µM (inactive) | > 100 µM (inactive) | > 100 µM (inactive) | > 100 µM (inactive) | > 100 µM (inactive) | > 100 µM (inactive) | > 31.6 µM (inactive) | – | – | – | – | – | –
CCN(CC)C(=S)N/N=C(\C)c1cccc(C)n1 | 0.183 µM (active) | < 0.01 µM (active) | – | 0.201 µM (active) | 0.0276 µM (active) | – | 0.568 µM (active) | 0.239 µM (active) | 2.2 µM (inactive) | 0.0593 µM (active) | 0.292 µM (active) | – | – | – | 0.776 µM (active) | 0.484 µM (active) | 0.377 µM (active) | 0.474 µM (active) | < 0.01 µM (active) | 0.832 µM (active)
COc1ccccc1C1C(C(=O)O)=C(CO)Oc2cc3c(cc21)OCO3 (centres undefined) | > 100 µM (inactive) | > 100 µM (inactive) | > 100 µM (inactive) | – | > 100 µM (inactive) | – | – | > 100 µM (inactive) | > 100 µM (inactive) | > 100 µM (inactive) | > 100 µM (inactive) | > 100 µM (inactive) | – | > 100 µM (inactive) | – | – | – | – | – | > 100 µM (inactive)
CN(C)C(=S)SCc1ccccc1 | 62.5 µM (inactive) | > 100 µM (inactive) | – | > 100 µM (inactive) | 19.8 µM (inactive) | – | 3.85 µM (inactive) | > 100 µM (inactive) | 83.4 µM (inactive) | > 100 µM (inactive) | > 100 µM (inactive) | – | – | 54.2 µM (inactive) | 87.9 µM (inactive) | > 100 µM (inactive) | > 100 µM (inactive) | > 100 µM (inactive) | – | > 100 µM (inactive)
CCCCSCC(NC(=O)/C=C/c1c(C)[nH]c(=O)[nH]c1=O)C(=O)OC (centres undefined) | 79.6 µM (inactive) | 20 µM (inactive) | 88.3 µM (inactive) | 24.9 µM (inactive) | 14.9 µM (inactive) | 13.8 µM (inactive) | 56.5 µM (inactive) | 61.2 µM (inactive) | 25.2 µM (inactive) | 64.9 µM (inactive) | 37.8 µM (inactive) | 47 µM (inactive) | – | 43.9 µM (inactive) | – | – | – | – | – | –
CC1C/C(=C\c2ccc(O)c(O)c2)C(=O)/C(=C/c2ccc(O)c(O)c2)C1 (centres undefined) | 3.18 µM (inactive) | 3.06 µM (inactive) | – | 8.17 µM (inactive) | 1.81 µM (inactive) | 7.16 µM (inactive) | 3.73 µM (inactive) | 3.25 µM (inactive) | 6.97 µM (inactive) | 4.23 µM (inactive) | 5.48 µM (inactive) | – | – | 2.86 µM (inactive) | – | 8.85 µM (inactive) | 2.83 µM (inactive) | 4.69 µM (inactive) | 14 µM (inactive) | 25 µM (inactive)
Cc1ccccc1NC(=O)CC(=O)N1N=C(N2c3ccccc3Sc3ccccc32)CC1c1ccccc1 (centres undefined) | > 100 µM (inactive) | – | > 100 µM (inactive) | > 100 µM (inactive) | – | > 100 µM (inactive) | – | > 100 µM (inactive) | – | > 100 µM (inactive) | > 100 µM (inactive) | > 100 µM (inactive) | > 100 µM (inactive) | > 100 µM (inactive) | – | – | – | – | – | > 100 µM (inactive)
CCCOC(=O)CCC(NC(=O)c1ccc(Nc2nc3ccccc3nc2-c2cccs2)cc1)C(=O)OCCC (centres undefined) | – | 3.62 µM (inactive) | > 100 µM (inactive) | > 100 µM (inactive) | > 100 µM (inactive) | > 100 µM (inactive) | 67.9 µM (inactive) | > 100 µM (inactive) | 24.8 µM (inactive) | 72.1 µM (inactive) | > 100 µM (inactive) | > 100 µM (inactive) | 79.8 µM (inactive) | > 100 µM (inactive) | – | – | – | – | – | > 100 µM (inactive)
Cc1cc(Cl)ccc1/N=C1/NC(=O)C(CC(=O)Nc2cccc(C)c2C)S1 (centres undefined) | 16.9 µM (inactive) | 22.2 µM (inactive) | 26.1 µM (inactive) | 32.4 µM (inactive) | – | 26.7 µM (inactive) | – | 21.5 µM (inactive) | 20.8 µM (inactive) | 20.4 µM (inactive) | 25.9 µM (inactive) | 28.5 µM (inactive) | 10.7 µM (inactive) | – | – | – | – | – | – | 39.3 µM (inactive)
